Laboratory results: the supplement of paper PMC10307832

How the values were obtained:
Assay in all cases: relative viability (nuclei count vs DMSO), 5 days (fraction); higher = more cells survive
[1] = compound: NCC(=O)Nc1ccc(-n2nc(C(F)(F)F)cc2-c2ccc3c(ccc4ccccc43)c2)cc1 + Cc1nc(Nc2ncc(C(=O)Nc3c(C)cccc3Cl)s2)cc(N2CCN(CCO)CC2)n1 [Dasatinib] (partner 0.075 µM)
Summary of the method: (§1)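 Lung cancer cell lines were pin-tool dosed in 1536-well plates on the day after seeding, with either a lone drug or a fixed anchor-drug dose plus five library-drug doses (not always all listed) in √10 steps. Nuclei were counted on 4× images after 5 days. Relative viability is the ratio of treated-well to vehicle-well nuclei counts, with each value a median of duplicate plates.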

[2] = compound: C1CSC2=C(C(=O)N1)SC3=C2C=C(C=C3)O [kb NB 142-70] + CS(=O)(=O)CCNCc1ccc(-c2ccc3ncnc(Nc4ccc(OCc5cccc(F)c5)c(Cl)c4)c3c2)o1 [Lapatinib] (partner 2 µM)
Summary of the method: as §1

[3] = compound: NCC(=O)Nc1ccc(-n2nc(C(F)(F)F)cc2-c2ccc3c(ccc4ccccc43)c2)cc1 + NC(=O)Nc1cc(-c2cccc(F)c2)sc1C(=O)N[C@H]1CCCNC1 [AZD7762] (partner 0.2 µM)
Summary of the method: as §1

[4] = compound: NCC(=O)Nc1ccc(-n2nc(C(F)(F)F)cc2-c2ccc3c(ccc4ccccc43)c2)cc1 + CCNC(=O)c1noc(-c2cc(C(C)C)c(O)cc2O)c1-c1ccc(CN2CCOCC2)cc1 [Luminespib] (partner 0.01 µM)
Summary of the method: as §1

Row | Cell Line | relative viability ([1]; first compound 0.02 µM) | relative viability ([1]; first compound 0.06325 µM) | relative viability ([1]; first compound 0.2 µM) | relative viability ([1]; first compound 0.6325 µM) | relative viability ([1]; first compound 2 µM) | relative viability ([2]; first compound 0.1 µM) | relative viability ([2]; first compound 1 µM) | relative viability ([2]; first compound 3.162 µM) | relative viability ([3]; first compound 0.02 µM) | relative viability ([3]; first compound 0.06325 µM) | relative viability ([3]; first compound 0.2 µM) | relative viability ([3]; first compound 0.6325 µM) | relative viability ([3]; first compound 2 µM) | relative viability ([4]; first compound 0.02 µM) | relative viability ([4]; first compound 0.06325 µM) | relative viability ([4]; first compound 0.2 µM) | relative viability ([4]; first compound 0.6325 µM) | relative viability ([4]; first compound 2 µM)
1 | HOP-62 | 0.725 | 0.629 | 0.699 | 0.652 | 0.679 | 1.07 | 0.97 | 0.974 | 0.646 | 0.482 | 0.693 | 0.566 | 0.711 | 0.887 | 0.911 | 0.862 | 0.9 | 0.951
2 | IA-LM | – | – | – | – | – | 0.771 | 0.95 | 0.787 | – | – | – | – | – | – | – | – | – | –
3 | LC-2-ad | 0.478 | 0.677 | 0.609 | 0.714 | 0.577 | 0.96 | 0.885 | 0.937 | 1.09 | 0.875 | 0.772 | 0.849 | 0.886 | 1.01 | 1.05 | 1.12 | 1.11 | 1.14
4 | LCLC-97TM1 | 0.901 | 0.809 | 0.797 | 0.827 | 0.752 | 0.992 | 0.685 | 1.08 | 0.284 | 0.253 | 0.28 | 0.39 | 0.159 | 0.869 | 0.76 | 0.689 | 0.8 | 0.831
5 | LCLC-103H | 0.439 | 0.458 | 0.485 | 0.465 | 0.433 | – | – | – | 0.796 | 0.79 | 0.752 | 0.812 | 0.818 | 0.932 | 0.919 | 1.03 | 0.925 | 0.895
6 | LK-2 | 0.32 | 0.325 | 0.271 | 0.266 | 0.263 | 0.802 | 0.734 | 0.536 | 0.459 | 0.47 | 0.402 | 0.493 | 0.381 | 0.173 | 0.195 | 0.217 | 0.173 | 0.208
7 | NCI-H441 | 0.444 | 0.665 | 0.729 | 0.548 | 0.681 | – | – | – | 1.12 | 1.1 | 1.32 | 1.06 | 1.12 | 0.334 | 0.391 | 0.347 | 0.296 | 0.397
8 | NCI-H520 | 0.207 | 0.206 | 0.177 | 0.213 | 0.212 | 0.826 | 0.848 | 0.464 | – | – | – | – | – | 0.193 | 0.179 | 0.198 | 0.239 | 0.229
9 | NCI-H522 | – | 0.831 | 0.874 | 0.854 | 0.921 | – | – | – | 0.609 | 1.09 | 0.815 | 0.888 | 0.828 | 0.97 | 1.05 | 1.24 | 1.19 | 1.37
10 | NCI-H661 | 0.866 | 1.01 | 0.884 | 0.943 | 0.925 | 0.511 | 0.478 | 0.492 | – | – | – | – | – | 0.932 | 0.907 | 0.899 | 0.925 | 0.906
11 | NCI-H1299 | – | – | – | – | – | 0.919 | 1.02 | 1 | – | – | – | – | – | – | – | – | – | –
12 | NCI-H1563 | 0.47 | 0.479 | 0.477 | 0.469 | 0.525 | 0.969 | 0.889 | 0.944 | – | – | – | – | – | 0.557 | 0.523 | 0.588 | 0.526 | 0.554
13 | NCI-H1623 | 0.544 | 0.676 | 0.531 | 0.488 | 0.528 | – | – | – | – | – | – | – | – | 0.552 | 0.425 | 0.457 | 0.661 | 0.558
14 | NCI-H1648 | – | – | – | – | – | – | – | – | 0.893 | 0.598 | 0.74 | 0.663 | 0.588 | – | – | – | – | –
15 | NCI-H1650 | 0.349 | 0.313 | – | 0.364 | 0.396 | 0.874 | 0.88 | 0.69 | – | – | – | – | – | 0.202 | 0.229 | – | 0.166 | 0.199
16 | NCI-H1703 | – | – | – | – | – | 1.1 | 1.08 | 1.31 | 0.127 | – | 0.122 | 0.124 | 0.142 | – | – | – | – | –
17 | NCI-H2009 | 0.314 | 0.332 | 0.327 | 0.279 | 0.305 | 0.952 | 1.03 | 0.678 | – | – | – | – | – | 1.1 | 0.932 | 1.09 | 1.03 | 1.03
18 | NCI-H2023 | 0.649 | 0.549 | 0.618 | 0.6 | 0.552 | 0.809 | 0.758 | 0.486 | – | – | – | – | – | 0.681 | 0.906 | 0.972 | 0.739 | 0.758
19 | NCI-H2228 | 0.561 | 0.571 | 0.523 | 0.472 | 0.533 | 1.07 | 1.02 | 0.323 | – | – | – | – | – | 0.144 | 0.16 | 0.177 | 0.154 | 0.16
20 | NCI-H2342 | 0.313 | 0.331 | 0.312 | 0.285 | 0.305 | – | – | – | 0.666 | 0.633 | 0.502 | 0.449 | 0.558 | 0.626 | 0.875 | 0.75 | 0.75 | 0.688
21 | SK-LU-1 | 0.165 | 0.186 | 0.181 | 0.175 | 0.181 | 0.865 | 0.802 | 0.527 | – | – | – | – | – | 0.208 | 0.182 | 0.193 | 0.206 | 0.18
22 | SK-MES-1 | 0.473 | 0.372 | 0.365 | 0.355 | 0.406 | 0.448 | 0.503 | 0.541 | – | – | – | – | – | 0.828 | 0.904 | 0.897 | 0.842 | 0.802
23 | SW 900 | – | 0.69 | 0.852 | 0.515 | 0.592 | – | – | – | 0.635 | 0.558 | 0.701 | 0.659 | 0.655 | – | 0.187 | 0.188 | 0.209 | 0.169
24 | SW 1573 | 0.471 | 0.383 | 0.586 | 0.471 | 0.424 | 1.03 | 0.877 | 0.988 | – | – | – | – | – | 0.252 | 0.151 | 0.151 | 0.677 | 0.209
